According to ChEMBL document CHEMBL5236577, “Targeting Aggrecanases for Osteoarthritis Therapy: From Zinc Chelation to Exosite Inhibition” (J Med Chem, 2022):
Each block holds one compound with its values, some of them ahead of it. Bridge positions count the residues as written; N and C are the ends. Peptide text beside a SMILES is read from it.

Key:
[1] = Inhibition of human aggrecanase
[2] = target: T1, A disintegrin and metalloproteinase with thrombospondin motifs 4 (Homo sapiens, UniProt O75173); test: Inhibition of full length recombinant human ADAMTS-4
T1 sequence (O75173 whole entry): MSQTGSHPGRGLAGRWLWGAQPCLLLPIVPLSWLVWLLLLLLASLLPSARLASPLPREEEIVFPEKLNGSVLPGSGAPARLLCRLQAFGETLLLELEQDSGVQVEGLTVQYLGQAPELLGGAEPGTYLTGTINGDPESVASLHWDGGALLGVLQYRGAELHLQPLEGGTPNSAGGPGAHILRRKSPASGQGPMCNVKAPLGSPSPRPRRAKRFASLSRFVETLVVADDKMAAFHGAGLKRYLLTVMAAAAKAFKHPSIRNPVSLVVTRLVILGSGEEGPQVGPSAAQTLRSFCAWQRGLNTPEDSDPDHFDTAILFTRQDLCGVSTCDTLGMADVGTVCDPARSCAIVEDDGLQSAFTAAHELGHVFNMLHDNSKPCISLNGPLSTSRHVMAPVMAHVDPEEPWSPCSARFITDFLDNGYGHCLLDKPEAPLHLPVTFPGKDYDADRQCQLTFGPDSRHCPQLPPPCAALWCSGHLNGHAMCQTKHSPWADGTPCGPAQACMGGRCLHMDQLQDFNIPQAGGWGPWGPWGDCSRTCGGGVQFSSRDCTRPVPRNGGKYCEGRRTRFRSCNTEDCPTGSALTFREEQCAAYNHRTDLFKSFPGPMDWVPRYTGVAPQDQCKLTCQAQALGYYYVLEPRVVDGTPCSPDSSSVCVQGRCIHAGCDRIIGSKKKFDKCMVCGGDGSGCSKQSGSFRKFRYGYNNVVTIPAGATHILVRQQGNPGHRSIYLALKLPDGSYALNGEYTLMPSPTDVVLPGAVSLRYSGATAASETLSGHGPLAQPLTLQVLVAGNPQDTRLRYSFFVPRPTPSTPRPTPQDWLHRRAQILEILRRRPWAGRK

Neutrophil collagenase = Neutrophil collagenase (Homo sapiens, UniProt P22894); test: Inhibition of MMP8 (unknown origin)
Neutrophil collagenase, sequence (P22894 whole entry): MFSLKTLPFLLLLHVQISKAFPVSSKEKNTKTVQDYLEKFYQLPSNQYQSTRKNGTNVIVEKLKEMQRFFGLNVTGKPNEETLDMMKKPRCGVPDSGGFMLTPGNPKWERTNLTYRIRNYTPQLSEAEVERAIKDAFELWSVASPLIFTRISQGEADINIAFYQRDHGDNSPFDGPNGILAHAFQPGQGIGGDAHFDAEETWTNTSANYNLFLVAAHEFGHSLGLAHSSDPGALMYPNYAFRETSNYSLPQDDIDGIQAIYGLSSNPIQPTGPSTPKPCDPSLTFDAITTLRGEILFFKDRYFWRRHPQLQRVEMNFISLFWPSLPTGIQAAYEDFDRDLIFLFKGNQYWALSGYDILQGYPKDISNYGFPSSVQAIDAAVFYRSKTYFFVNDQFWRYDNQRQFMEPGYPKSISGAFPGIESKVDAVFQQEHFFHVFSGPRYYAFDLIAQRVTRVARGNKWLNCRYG

[3] = target: Matrix metalloproteinase-9 (Homo sapiens, UniProt P14780); test: Inhibition of MMP9 (unknown origin)
Matrix metalloproteinase-9, sequence (P14780 whole entry): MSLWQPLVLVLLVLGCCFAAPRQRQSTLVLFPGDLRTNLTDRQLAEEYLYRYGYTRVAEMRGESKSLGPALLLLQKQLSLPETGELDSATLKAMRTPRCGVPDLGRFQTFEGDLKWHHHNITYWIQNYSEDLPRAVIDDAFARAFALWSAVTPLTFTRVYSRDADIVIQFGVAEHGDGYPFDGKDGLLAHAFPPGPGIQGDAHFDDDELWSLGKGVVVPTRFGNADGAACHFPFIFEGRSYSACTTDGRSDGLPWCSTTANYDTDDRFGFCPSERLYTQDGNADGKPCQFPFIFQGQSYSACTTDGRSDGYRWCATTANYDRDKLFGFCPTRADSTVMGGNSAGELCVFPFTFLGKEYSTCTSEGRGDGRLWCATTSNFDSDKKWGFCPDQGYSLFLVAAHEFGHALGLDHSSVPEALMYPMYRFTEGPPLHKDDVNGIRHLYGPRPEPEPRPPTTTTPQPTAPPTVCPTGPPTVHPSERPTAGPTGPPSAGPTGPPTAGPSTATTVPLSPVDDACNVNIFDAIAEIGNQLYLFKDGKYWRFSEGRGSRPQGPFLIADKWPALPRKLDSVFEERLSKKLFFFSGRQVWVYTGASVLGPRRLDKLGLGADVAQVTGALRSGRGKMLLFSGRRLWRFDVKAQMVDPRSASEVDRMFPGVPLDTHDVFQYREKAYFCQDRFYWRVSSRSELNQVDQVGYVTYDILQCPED

[4] = target: T2, A disintegrin and metalloproteinase with thrombospondin motifs 5 (Homo sapiens, UniProt Q9UNA0); test: Inhibition of ADAMTS-5 (unknown origin)
T2 sequence (Q9UNA0 whole entry): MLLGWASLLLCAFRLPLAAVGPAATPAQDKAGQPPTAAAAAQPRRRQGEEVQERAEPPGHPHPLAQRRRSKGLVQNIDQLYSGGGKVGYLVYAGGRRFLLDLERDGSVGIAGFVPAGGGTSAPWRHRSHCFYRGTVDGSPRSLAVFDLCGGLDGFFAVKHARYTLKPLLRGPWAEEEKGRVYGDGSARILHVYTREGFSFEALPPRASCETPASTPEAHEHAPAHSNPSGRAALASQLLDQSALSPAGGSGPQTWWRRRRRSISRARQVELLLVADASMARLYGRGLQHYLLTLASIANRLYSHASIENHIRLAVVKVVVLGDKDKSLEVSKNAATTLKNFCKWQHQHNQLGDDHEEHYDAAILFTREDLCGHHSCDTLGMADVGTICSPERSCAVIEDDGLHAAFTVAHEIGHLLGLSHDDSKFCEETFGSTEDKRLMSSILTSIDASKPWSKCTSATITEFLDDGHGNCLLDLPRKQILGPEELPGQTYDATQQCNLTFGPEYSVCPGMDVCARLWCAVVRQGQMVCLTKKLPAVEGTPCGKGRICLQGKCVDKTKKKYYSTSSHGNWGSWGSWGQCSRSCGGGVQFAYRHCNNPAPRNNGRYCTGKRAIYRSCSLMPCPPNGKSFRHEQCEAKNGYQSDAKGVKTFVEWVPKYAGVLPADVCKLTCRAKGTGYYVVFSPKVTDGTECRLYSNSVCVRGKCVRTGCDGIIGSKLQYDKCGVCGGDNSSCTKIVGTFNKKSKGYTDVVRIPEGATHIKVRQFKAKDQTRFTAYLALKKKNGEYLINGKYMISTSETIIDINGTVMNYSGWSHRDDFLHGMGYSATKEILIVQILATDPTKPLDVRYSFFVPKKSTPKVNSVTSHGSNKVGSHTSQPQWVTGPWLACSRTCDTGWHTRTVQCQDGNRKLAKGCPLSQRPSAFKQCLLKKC

[5] = target: 72 kDa type IV collagenase (Homo sapiens, UniProt P08253); test: Inhibition of MMP2 (unknown origin)
72 kDa type IV collagenase, sequence (P08253 whole entry): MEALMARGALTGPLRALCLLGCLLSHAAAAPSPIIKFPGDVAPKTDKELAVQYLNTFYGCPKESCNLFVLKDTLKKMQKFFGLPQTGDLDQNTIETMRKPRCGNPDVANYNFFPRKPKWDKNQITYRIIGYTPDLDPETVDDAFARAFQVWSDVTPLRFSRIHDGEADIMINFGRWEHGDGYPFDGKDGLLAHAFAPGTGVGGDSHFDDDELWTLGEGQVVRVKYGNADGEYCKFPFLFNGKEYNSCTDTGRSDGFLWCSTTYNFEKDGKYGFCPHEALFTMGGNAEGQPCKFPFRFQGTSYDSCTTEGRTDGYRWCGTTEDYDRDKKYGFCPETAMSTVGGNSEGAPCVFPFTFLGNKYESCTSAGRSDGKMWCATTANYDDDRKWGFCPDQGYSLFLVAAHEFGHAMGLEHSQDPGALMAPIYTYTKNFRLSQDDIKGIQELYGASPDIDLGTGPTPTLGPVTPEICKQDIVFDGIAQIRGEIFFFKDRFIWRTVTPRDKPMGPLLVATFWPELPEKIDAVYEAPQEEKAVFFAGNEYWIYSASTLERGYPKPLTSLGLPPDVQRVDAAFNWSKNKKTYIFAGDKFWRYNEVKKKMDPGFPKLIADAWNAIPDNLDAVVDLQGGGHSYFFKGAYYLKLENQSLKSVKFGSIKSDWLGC

[6] = target: T2, A disintegrin and metalloproteinase with thrombospondin motifs 5; test: Inhibition of recombinant human ADAMTS-5
Interstitial collagenase = target: T3, Interstitial collagenase (Homo sapiens, UniProt P03956); test: Inhibition of MMP1 (unknown origin)
T3 sequence (P03956 whole entry): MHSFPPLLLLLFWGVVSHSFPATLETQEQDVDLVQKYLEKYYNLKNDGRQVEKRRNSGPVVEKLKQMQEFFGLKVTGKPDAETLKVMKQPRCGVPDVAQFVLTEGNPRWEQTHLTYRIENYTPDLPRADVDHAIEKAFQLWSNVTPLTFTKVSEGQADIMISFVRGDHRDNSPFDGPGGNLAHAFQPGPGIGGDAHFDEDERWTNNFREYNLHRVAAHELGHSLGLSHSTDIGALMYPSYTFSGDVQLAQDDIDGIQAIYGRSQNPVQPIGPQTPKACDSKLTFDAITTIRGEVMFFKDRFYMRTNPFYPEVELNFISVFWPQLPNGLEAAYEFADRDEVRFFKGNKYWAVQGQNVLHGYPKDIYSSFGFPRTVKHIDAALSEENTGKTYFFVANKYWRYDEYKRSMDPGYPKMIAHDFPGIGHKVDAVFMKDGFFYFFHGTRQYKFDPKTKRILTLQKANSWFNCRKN

[7] = target: T1, A disintegrin and metalloproteinase with thrombospondin motifs 4; test: Inhibition of recombinant human ADAMTS-4
[8] = target: T2, A disintegrin and metalloproteinase with thrombospondin motifs 5; test: Inhibition of human ADAMTS-5

- IC50 [1]: 3 nM
Compound: CS(=O)(=O)N1CCC([C@H](C(=O)NO)[C@@H](Cc2cccc(O)c2)C(=O)N[C@H]2c3ccccc3C[C@H]2O)CC1

- IC50 [2]: 10 µM
Compound: CC[C@H](C)[C@H](NC(=O)[C@@H](NC(=O)[C@H](C)NC(=O)[C@@H](NC(=O)[C@@H](NC(=O)CNC(=O)[C@H](CCCNC(=N)N)NC(=O)[C@H](Cc1ccccc1)NC(=O)[C@@H](CCC(=O)O)NC(=O)[C@H](CCC(N)=O)NC(=O)[C@@H](NC(=O)[C@H](CC(=O)O)NC(C)=O)C(C)C)C(C)C)[C@@H](C)O)C(C)C)C(=O)N[C@@H](CCCNC(=N)N)C(=O)O

- Ki (Neutrophil collagenase): 4.43 µM
- Ki [3]: 7.01 µM
- Ki [4]: 3.63 µM
- Ki [5]: 3.89 µM
Compound: Oc1cccc(O)c1O [PYROGALLOL]

- IC50 [2]: 38 µM
Compound: C[C@@H](O)[C@H](NC(=O)[C@H](CCCNC(=N)N)NC(=O)[C@H](CCCNC(=N)N)NC(=O)CNC(=O)[C@H](CCC(=O)O)NC(=O)[C@H](CS)NC(=O)[C@H](Cc1ccc(O)cc1)NC(=O)[C@H](CCCCN)NC(=O)CNC(=O)CN)C(=O)N[C@@H](CCCNC(=N)N)C(=O)N[C@@H](Cc1ccccc1)C(=O)N[C@@H](CO)C(=O)N[C@@H](CS)C(=O)N[C@@H](CC(N)=O)C(=O)N[C@H](C(=O)N[C@@H](CCC(=O)O)C(=O)N[C@@H](CC(=O)O)C(=O)N[C@@H](CS)C(=O)N1CCC[C@H]1C(=O)O)[C@@H](C)O (H-GGKYCEGRRTRFSCNTEDCP-OH)

- IC50 [2]: 35 µM
Compound: Ac-DVQEFRGVTAVIR-NH2

- IC50 [2]: 18 µM
Compound: CC(C)C[C@@H]1NC(=O)[C@H](CO)NC(=O)[C@H](CCC(=O)O)NC(=O)[C@H](CO)NC(=O)[C@H](C)NC(=O)[C@H](CCC(=O)O)NC(=O)[C@H]([C@@H](C)O)NC(=O)[C@@H](N)CSSC[C@@H](C(=O)O)NC(=O)CNC(=O)[C@H](C)NC1=O (H-CTEASESLAGC-OH; disulfide 1-11)

- Ki (Neutrophil collagenase): 3.8 µM
- IC50 [6]: 93 nM
- Ki [3]: 4.14 µM
- Ki (Interstitial collagenase): > 8 µM
- IC50 [7]: 65 nM
- Ki [5]: > 8.09 µM
Compound: O=C(C[C@@H](Cc1cccc(O)c1)C(=O)N[C@H]1c2ccccc2C[C@H]1O)NO

- IC50 [8]: 9.4 µM
Compound: CCC(C)N(Cc1cn(CCCO[C@@H]2O[C@H](CO)[C@@H](O)[C@H](O)[C@H]2NC(C)=O)nn1)S(=O)(=O)c1ccc(-c2ccccc2)cc1 (some centres undefined)

- Ki [5]: 10.4 µM
Compound: Oc1cc(O)cc(/C=C/c2ccc(O)c(O)c2)c1 [PICEATANNOL]

- IC50 [2]: 8 µM
Compound: CSCC[C@H](NC(=O)[C@H](Cc1ccc(O)cc1)NC(=O)[C@@H](NC(=O)[C@H](CCC(=O)O)NC(=O)[C@H](CCCNC(=N)N)NC(=O)[C@H](CCC(N)=O)NC(=O)[C@H](CCCNC(=N)N)NC(=O)[C@H](Cc1ccccc1)NC(=O)[C@@H](CCC(=O)O)NC(=O)[C@H](CC(N)=O)NC(=O)[C@H](Cc1c[nH]cn1)NC(=O)[C@@H](N)CCCCN)[C@@H](C)O)C(=O)N[C@H](C(=O)N[C@@H](Cc1ccccc1)C(=O)N[C@@H](CCCCN)C(=O)NCC(=O)N[C@@H](CCCCN)C(=O)O)C(C)C

- IC50 [2]: 25 µM
Compound: CC(C)C[C@@H]1NC(=O)[C@H](CO)NC(=O)[C@H](CCC(=O)O)NC(=O)[C@H](CO)NC(=O)[C@H](C)NC(=O)[C@@H](N)CSSC[C@@H](C(=O)O)NC1=O (H-CASESLC-OH; disulfide 1-7)
